Data on eight compounds can be found in US12240862B2, “Inhibitors of peptidylarginine deiminases” (Gilead Sciences, Inc., priority 2020, dated 2025).

pIC50: −log10 of the molar value.

For the test, the target named is T1, human PAD4 (Homo sapiens, UniProt Q9UM07).
T1 construct: human PAD4 (NM_012387), A2P663, was PCR amplified; His-SUMO (N, cleaved yes); made in house; host or cells: E. coli BL21(DE3)
T1 sequence (Q9UM07 2-663): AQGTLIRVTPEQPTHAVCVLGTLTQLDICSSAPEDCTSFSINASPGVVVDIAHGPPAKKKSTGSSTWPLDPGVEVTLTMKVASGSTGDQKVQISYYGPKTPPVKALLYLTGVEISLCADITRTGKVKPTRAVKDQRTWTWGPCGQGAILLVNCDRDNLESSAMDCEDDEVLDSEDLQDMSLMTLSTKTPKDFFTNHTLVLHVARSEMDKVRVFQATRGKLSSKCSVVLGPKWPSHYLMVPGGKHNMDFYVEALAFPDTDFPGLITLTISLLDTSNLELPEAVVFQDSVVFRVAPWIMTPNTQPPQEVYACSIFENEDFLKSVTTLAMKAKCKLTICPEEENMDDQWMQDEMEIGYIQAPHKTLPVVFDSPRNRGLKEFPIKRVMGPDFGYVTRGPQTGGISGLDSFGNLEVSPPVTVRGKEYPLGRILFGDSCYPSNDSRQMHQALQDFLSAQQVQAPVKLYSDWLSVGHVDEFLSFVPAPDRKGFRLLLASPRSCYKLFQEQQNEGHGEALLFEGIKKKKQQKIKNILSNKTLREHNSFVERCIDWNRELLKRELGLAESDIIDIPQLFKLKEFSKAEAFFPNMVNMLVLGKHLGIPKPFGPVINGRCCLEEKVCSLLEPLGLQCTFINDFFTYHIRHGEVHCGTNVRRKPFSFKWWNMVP
The experiment in a line: In vitro PAD4 BAEE biochemical assay. Conditions: human PAD4, BAEE substrate; 5 nM PAD4, 2 mM calcium chloride, 3 mM BAEE; geometric mean of multiple experiments. A digest of the protocol: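 Ammonia generated from BAEE serves as the readout, measured by o-phthalaldehyde after EDTA termination. Final conditions: 5 nM human PAD4 (SUMO tag cleaved), 2 mM CaCl2, 3 mM BAEE, pH 7.6 MOPS buffer, 25 °C for 2 h following a 30-min compound preincubation.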
Take `CNC(=O)[C@@H](C)Oc1ccc2cc(-c3nc4cc(C(=O)N5CCC[C@@H](N)C5)cc(OC)n4c3C)n(CC3CC3)c2n1` [Example 618]: the negative-log IC50 (pIC50) – broadly, the IC50 on a negative log10 scale, so that one unit is a factor of ten – was 6.40.

Regarding `COc1cc(C(=O)N2[C@H]3CC[C@@H]2[C@H](N)C3)cc2nc(-c3cc4ccc([C@@H](C)Nc5cccc(Cl)n5)nc4n3CC3CC3)c(C)n12` [Example 262, [(1~{R},2~{R},4~{S})-2-amino-7-azabicyclo [2.2.1]heptan-7-yl]-[2-[6-[(1~{R})-1-[(6-chloropyridin-2-yl)amino]ethyl]-1-(cyclopropylmethyl)pyrrolo[2,3-b]pyridin-2-yl]-5-methoxy-3-methylimidazo[1,2-a]pyridin-7-yl]methanone], the negative-log IC50 (pIC50) was 6.06.

`COc1cc(C(=O)N2[C@H]3CC[C@@H]2[C@H](N)C3)cc2nc(-c3cc4ccc([C@@H](C)NC(=O)[C@H]5CC5(F)F)nc4n3CC3CC3)c(C)n12` [Example 131, (1~{R})-~{N}-[(1~{R})-1-[2-[7-[(1~{R},2~{R},4~{S})-2-amino-7-azabicyclo[2.2.1]heptane-7-carbonyl]-5-methoxy-3-methylimidazo [1,2-a]pyridin-2-yl]-1-(cyclopropylmethyl)pyrrolo [2,3-b]pyridin-6-yl]ethyl]-2,2-difluorocyclopropane-1-carboxamide]: the pIC50 is 7.52.

With “[(1~{R},2~{R},4~{S})-2- amino-7-azabicyclo [2.2.1]heptan-7-yl]-[2-[6- ethyl-1-[(1~{R},2~{R})-2- phenylcyclopropyl]methyl] pyrrolo[2,3-b] pyridin-2-yl]-5-methoxy-3- methylimidazo[1,2-a] pyridin-7-yl]methanone [Example 492]”, the pIC50 is 5.68.

For `COc1cc(C(=O)N2[C@H]3CC[C@@H]2[C@H](N)C3)cc2nc(-c3cc4ccc([C@@H](C)NC(=O)NC5CCOC5)nc4n3CC3CC3)c(C)n12` (some centres unmarked) [Example 231, 1-[(1~{R})-1-[2-[7-[(1~{R},2~{R},4~{S})-2-amino-7-azabicyclo[2.2.1]heptane-7-carbonyl]-5-methoxy-3-methylimidazo [1,2-a]pyridin-2-yl]-1-(cyclopropylmethyl)pyrrolo [2,3-b]pyridin-6-yl]ethyl]-3-(oxolan-3-yl)urea], the pIC50 was 7.19.

Regarding `COc1cc(C(=O)N2[C@H]3CC[C@@H]2[C@H](N)C3)cc2nc(-c3cc4ccc(N5CCCCS5(=O)=O)nc4n3CC3CC3)c(C)n12` [Example 474, [(1~{R},2~{R},4~{S})-2-amino-7-azabicyclo [2.2.1]heptan-7-yl]-[2-[1-(cyclopropylmethyl)-6-(1,1-dioxothiazinan-2-yl)pyrrolo [2,3-b]pyridin-2-yl]-5-methoxy-3-methylimidazo [1,2-a]pyridin-7-yl]methanone], the pIC50 is 7.35.

On to `COc1cc(C(=O)N2[C@H]3CC[C@@H]2[C@H](N)C3)cc2nc(-c3cc4ccc(C(O)C(F)(F)F)nc4n3CC3CC3)c(C)n12` (some centres unmarked) [Example 569, [(1~{R},2~{R},4~{S})-2-amino-7-azabicyclo [2.2.1]heptan-7-yl]-[2-[1-(cyclopropylmethyl)-6-(2,2,2-trifluoro-1-hydroxyethyl)pyrrolo [2,3-b]pyridin-2-yl]-5-methoxy-3-methylimidazo[1,2-a]pyridin-7-yl]methanone], for which the pIC50 was 6.84.

In the case of `COc1cc(C(=O)N2[C@H]3CC[C@@H]2[C@H](N)C3)cc2nc(-c3cc4ccc([C@@H](C)NC(=O)C(C)C(F)(F)F)nc4n3CC3CC3)c(C)n12` (some centres unmarked) [Example 7, ~{N}-[(1~{R})-1-[2-[7-[(1~{R},2~{R},4~{S})-2-amino-7-azabicyclo [2.2.1]heptane-7-carbonyl]-5-methoxy-3-methylimidazo [1,2-a]pyridin-2-yl]-1-(cyclopropylmethyl)pyrrolo[2,3-b]pyridin-6-yl]ethyl]-3,3,3-trifluoro-2-methylpropanamide], the negative logarithm of the IC50 (pIC50) is 6.90.
